From ChEMBL document CHEMBL1177694, “Multivalent catanionic GalCer analogs derived from first generation dendrimeric phosphonic acids” (Bioorg Med Chem, 2010)

Columns and labels:
[1] = tested on: Human immunodeficiency virus 1; test: Antiviral activity against HIV1 LAI infected in human CEM-SS cells assessed as inhibition of viral replication after 5 days by MTT assay; assay type: functional, organism-based; settings: Human immunodeficiency virus 1, LAI, 120 h
[2] = Therapeutic index, ratio of CC50 for human CEM-SS cells to IC50 for HIV1 LAI infected in human CEM-SS cells; assay type: cell-based; settings: CEM-SS cells (uninfected and infected with HIV1 LAI), read-out: Ratio CC50/IC50
[3] = Cytotoxicity against human CEM-SS cells after 5 days by MTT assay; assay type: cell-based

| SMILES | IC50 [1] | selectivity ratio [2] | CC50 at 120 h [3] |
| --- | --- | --- | --- |
| CCCCCCCCCCC(C(=O)NCCc1ccc(OP(=S)(Oc2ccc(CCNC(=O)C(CCCCCCCCCC)P(=O)(O)O)cc2)N(C)/N=C/c2ccc(OP3(Oc4ccc(/C=N/N(C)P(=S)(Oc5ccc(CCNC(=O)C(CCCCCCCCCC)P(=O)(O)O)cc5)Oc5ccc(CCNC(=O)C(CCCCCCCCCC)P(=O)(O)O)cc5)cc4)=NP(Oc4ccc(/C=N/N(C)P(=S)(Oc5ccc(CCNC(=O)C(CCCCCCCCCC)P(=O)(O)O)cc5)Oc5ccc(CCNC(=O)C(CCCCCCCCCC)P(=O)(O)O)cc5)cc4)(Oc4ccc(/C=N/N(C)P(=S)(Oc5ccc(CCNC(=O)C(CCCCCCCCCC)P(=O)(O)O)cc5)Oc5ccc(CCNC(=O)C(CCCCCCCCCC)P(=O)(O)O)cc5)cc4)=NP(Oc4ccc(/C=N/N(C)P(=S)(Oc5ccc(CCNC(=O)C(CCCCCCCCCC)P(=O)(O)O)cc5)Oc5ccc(CCNC(=O)C(CCCCCCCCCC)P(=O)(O)O)cc5)cc4)(Oc4ccc(/C=N/N(C)P(=S)(Oc5ccc(CCNC(=O)C(CCCCCCCCCC)P(=O)(O)O)cc5)Oc5ccc(CCNC(=O)C(CCCCCCCCCC)P(=O)(O)O)cc5)cc4)=N3)cc2)cc1)P(=O)(O)O (configuration not stated) | 16 µM | > 6 | > 100 µM |
| CN(/N=C/c1ccc(OP2(Oc3ccc(/C=N/N(C)P(=S)(Oc4ccc(/C=C/P(=O)(O)O)cc4)Oc4ccc(/C=C/P(=O)(O)O)cc4)cc3)=NP(Oc3ccc(/C=N/N(C)P(=S)(Oc4ccc(/C=C/P(=O)(O)O)cc4)Oc4ccc(/C=C/P(=O)(O)O)cc4)cc3)(Oc3ccc(/C=N/N(C)P(=S)(Oc4ccc(/C=C/P(=O)(O)O)cc4)Oc4ccc(/C=C/P(=O)(O)O)cc4)cc3)=NP(Oc3ccc(/C=N/N(C)P(=S)(Oc4ccc(/C=C/P(=O)(O)O)cc4)Oc4ccc(/C=C/P(=O)(O)O)cc4)cc3)(Oc3ccc(/C=N/N(C)P(=S)(Oc4ccc(/C=C/P(=O)(O)O)cc4)Oc4ccc(/C=C/P(=O)(O)O)cc4)cc3)=N2)cc1)P(=S)(Oc1ccc(/C=C/P(=O)(O)O)cc1)Oc1ccc(/C=C/P(=O)(O)O)cc1 | 0.65 µM | > 153 | > 100 µM |
| CN(/N=C/c1ccc(OP2(Oc3ccc(/C=N/N(C)P(=S)(Oc4ccc(C(O)P(=O)(O)O)cc4)Oc4ccc(C(O)P(=O)(O)O)cc4)cc3)=NP(Oc3ccc(/C=N/N(C)P(=S)(Oc4ccc(C(O)P(=O)(O)O)cc4)Oc4ccc(C(O)P(=O)(O)O)cc4)cc3)(Oc3ccc(/C=N/N(C)P(=S)(Oc4ccc(C(O)P(=O)(O)O)cc4)Oc4ccc(C(O)P(=O)(O)O)cc4)cc3)=NP(Oc3ccc(/C=N/N(C)P(=S)(Oc4ccc(C(O)P(=O)(O)O)cc4)Oc4ccc(C(O)P(=O)(O)O)cc4)cc3)(Oc3ccc(/C=N/N(C)P(=S)(Oc4ccc(C(O)P(=O)(O)O)cc4)Oc4ccc(C(O)P(=O)(O)O)cc4)cc3)=N2)cc1)P(=S)(Oc1ccc(C(O)P(=O)(O)O)cc1)Oc1ccc(C(O)P(=O)(O)O)cc1 (configuration not stated) | 50 µM | > 2 | > 100 µM |
| CN(/N=C/c1ccc(OP2(Oc3ccc(/C=N/N(c4ccc(CCN(CP(=O)(O)O)CP(=O)(O)O)cc4)P(O)(=S)Oc4ccc(CCN(CP(=O)(O)O)CP(=O)(O)O)cc4)cc3)=NP(Oc3ccc(/C=N/N(C)P(=S)(Oc4ccc(CCN(CP(=O)(O)O)CP(=O)(O)O)cc4)Oc4ccc(CCN(CP(=O)(O)O)CP(=O)(O)O)cc4)cc3)(Oc3ccc(/C=N/N(C)P(=S)(Oc4ccc(CCN(CP(=O)(O)O)CP(=O)(O)O)cc4)Oc4cccc(CCN(CP(=O)(O)O)CP(=O)(O)O)c4)cc3)=NP(Oc3ccc(/C=N/N(C)P(=S)(Oc4ccc(CCN(CP(=O)(O)O)CP(=O)(O)O)cc4)Oc4ccc(CCN(CP(=O)(O)O)CP(=O)(O)O)cc4)cc3)(Oc3ccc(/C=N/N(C)P(=S)(Oc4ccc(CCN(CP(=O)(O)O)CP(=O)(O)O)cc4)Oc4ccc(CCN(CP(=O)(O)O)CP(=O)(O)O)cc4)cc3)=N2)cc1)P(=S)(Oc1ccc(CCN(CP(=O)(O)O)CP(=O)(O)O)cc1)Oc1ccc(CCN(CP(=O)(O)O)CP(=O)(O)O)cc1 (configuration not stated) | 20 µM | > 5 | > 100 µM |
| CN(/N=C/c1ccc(OP2(Oc3ccc(/C=N/N(C)P(=S)(Oc4ccc(CCNC(=O)CP(=O)(O)O)cc4)Oc4ccc(CCNC(=O)CP(=O)(O)O)cc4)cc3)=NP(Oc3ccc(/C=N/N(C)P(=S)(Oc4ccc(CCNC(=O)CP(=O)(O)O)cc4)Oc4ccc(CCNC(=O)CP(=O)(O)O)cc4)cc3)(Oc3ccc(/C=N/N(C)P(=S)(Oc4ccc(CCNC(=O)CP(=O)(O)O)cc4)Oc4ccc(CCNC(=O)CP(=O)(O)O)cc4)cc3)=NP(Oc3ccc(/C=N/N(C)P(=S)(Oc4ccc(CCNC(=O)CP(=O)(O)O)cc4)Oc4ccc(CCNC(=O)CP(=O)(O)O)cc4)cc3)(Oc3ccc(/C=N/N(C)P(=S)(Oc4ccc(CCNC(=O)CP(=O)(O)O)cc4)Oc4ccc(CCNC(=O)CP(=O)(O)O)cc4)cc3)=N2)cc1)P(=S)(Oc1ccc(CCNC(=O)CP(=O)(O)O)cc1)Oc1ccc(CCNC(=O)CP(=O)(O)O)cc1 | 25 µM | > 4 | > 100 µM |
| CCCC(C(=O)NCCc1ccc(OP(=S)(Oc2ccc(CCNC(=O)C(CCC)P(=O)(O)O)cc2)N(C)/N=C/c2ccc(OP3(Oc4ccc(/C=N/N(C)P(=S)(Oc5ccc(CCNC(=O)C(CCC)P(=O)(O)O)cc5)Oc5ccc(CCNC(=O)C(CCC)P(=O)(O)O)cc5)cc4)=NP(Oc4ccc(/C=N/N(C)P(=S)(Oc5ccc(CCNC(=O)C(CCC)P(=O)(O)O)cc5)Oc5ccc(CCNC(=O)C(CCC)P(=O)(O)O)cc5)cc4)(Oc4ccc(/C=N/N(C)P(=S)(Oc5ccc(CCNC(=O)C(CCC)P(=O)(O)O)cc5)Oc5ccc(CCNC(=O)C(CCC)P(=O)(O)O)cc5)cc4)=NP(Oc4ccc(/C=N/N(C)P(=S)(Oc5ccc(CCNC(=O)C(CCC)P(=O)(O)O)cc5)Oc5ccc(CCNC(=O)C(CCC)P(=O)(O)O)cc5)cc4)(Oc4ccc(/C=N/N(C)P(=S)(Oc5ccc(CCNC(=O)C(CCC)P(=O)(O)O)cc5)Oc5ccc(CCNC(=O)C(CCC)P(=O)(O)O)cc5)cc4)=N3)cc2)cc1)P(=O)(O)O (configuration not stated) | 1.5 µM | > 67 | > 100 µM |
| CCCC(C(=O)NCCc1ccc(OP(=S)(Oc2ccc(CCNC(=O)C(CCC)P(=O)(O)O)cc2)N(C)/N=C/c2ccc(OP3(Oc4ccc(/C=N/N(C)P(=S)(Oc5ccc(CCNC(=O)C(CCC)P(=O)(O)O)cc5)Oc5ccc(CCNC(=O)C(CCC)P(=O)(O)O)cc5)cc4)=NP(Oc4ccc(/C=N/N(C)P(=S)(Oc5ccc(CCNC(=O)C(CCC)P(=O)(O)O)cc5)Oc5ccc(CCNC(=O)C(CCC)P(=O)(O)O)cc5)cc4)(Oc4ccc(/C=N/N(C)P(=S)(Oc5ccc(CCNC(=O)C(CCC)P(=O)(O)O)cc5)Oc5ccc(CCNC(=O)C(CCC)P(=O)(O)O)cc5)cc4)=NP(Oc4ccc(/C=N/N(C)P(=S)(Oc5ccc(CCNC(=O)C(CCC)P(=O)(O)O)cc5)Oc5ccc(CCNC(=O)C(CCC)P(=O)(O)O)cc5)cc4)(Oc4ccc(/C=N/N(C)P(=S)(Oc5ccc(CCNC(=O)C(CCC)P(=O)(O)O)cc5)Oc5ccc(CCNC(=O)C(CCC)P(=O)(O)O)cc5)cc4)=N3)cc2)cc1)P(=O)(O)O.CCCCCCCCCCCCCCCCNOC(CO)C(O)C(OC1OC(CO)C(O)C(O)C1O)C(O)CO.CCCCCCCCCCCCCCCCNOC(CO)C(O)C(OC1OC(CO)C(O)C(O)C1O)C(O)CO.CCCCCCCCCCCCCCCCNOC(CO)C(O)C(OC1OC(CO)C(O)C(O)C1O)C(O)CO.CCCCCCCCCCCCCCCCNOC(CO)C(O)C(OC1OC(CO)C(O)C(O)C1O)C(O)CO.CCCCCCCCCCCCCCCCNOC(CO)C(O)C(OC1OC(CO)C(O)C(O)C1O)C(O)CO.CCCCCCCCCCCCCCCCNOC(CO)C(O)C(OC1OC(CO)C(O)C(O)C1O)C(O)CO (configuration not stated) | 0.33 µM | 4.5 | 1.5 µM |
| CCCCCCCCCCCCCCCCNOC(CO)C(O)C(OC1OC(CO)C(O)C(O)C1O)C(O)CO.CCCCCCCCCCCCCCCCNOC(CO)C(O)C(OC1OC(CO)C(O)C(O)C1O)C(O)CO.CCCCCCCCCCCCCCCCNOC(CO)C(O)C(OC1OC(CO)C(O)C(O)C1O)C(O)CO.CCCCCCCCCCCCCCCCNOC(CO)C(O)C(OC1OC(CO)C(O)C(O)C1O)C(O)CO.CCCCCCCCCCCCCCCCNOC(CO)C(O)C(OC1OC(CO)C(O)C(O)C1O)C(O)CO.CCCCCCCCCCCCCCCCNOC(CO)C(O)C(OC1OC(CO)C(O)C(O)C1O)C(O)CO.CN(/N=C/c1ccc(OP2(Oc3ccc(/C=N/N(C)P(=S)(Oc4ccc(CCNC(=O)CP(=O)(O)O)cc4)Oc4ccc(CCNC(=O)CP(=O)(O)O)cc4)cc3)=NP(Oc3ccc(/C=N/N(C)P(=S)(Oc4ccc(CCNC(=O)CP(=O)(O)O)cc4)Oc4ccc(CCNC(=O)CP(=O)(O)O)cc4)cc3)(Oc3ccc(/C=N/N(C)P(=S)(Oc4ccc(CCNC(=O)CP(=O)(O)O)cc4)Oc4ccc(CCNC(=O)CP(=O)(O)O)cc4)cc3)=NP(Oc3ccc(/C=N/N(C)P(=S)(Oc4ccc(CCNC(=O)CP(=O)(O)O)cc4)Oc4ccc(CCNC(=O)CP(=O)(O)O)cc4)cc3)(Oc3ccc(/C=N/N(C)P(=S)(Oc4ccc(CCNC(=O)CP(=O)(O)O)cc4)Oc4ccc(CCNC(=O)CP(=O)(O)O)cc4)cc3)=N2)cc1)P(=S)(Oc1ccc(CCNC(=O)CP(=O)(O)O)cc1)Oc1ccc(CCNC(=O)CP(=O)(O)O)cc1 | 0.4 µM | 4.8 | 1.9 µM |
| CCCCCCCCCC(C(=O)NCCc1ccc(OP(=S)(Oc2ccc(CCNC(=O)C(CCCCCCCCC)P(=O)(O)O)cc2)N(C)/N=C/c2ccc(OP3(Oc4ccc(/C=N/N(C)P(=S)(Oc5ccc(CCNC(=O)C(CCCCCCCCC)P(=O)(O)O)cc5)Oc5ccc(CCNC(=O)C(CCCCCCCCC)P(=O)(O)O)cc5)cc4)=NP(Oc4ccc(/C=N/N(C)P(=S)(Oc5ccc(CCNC(=O)C(CCCCCCCCC)P(=O)(O)O)cc5)Oc5ccc(CCNC(=O)C(CCCCCCCCC)P(=O)(O)O)cc5)cc4)(Oc4ccc(/C=N/N(C)P(=S)(Oc5ccc(CCNC(=O)C(CCCCCCCCC)P(=O)(O)O)cc5)Oc5ccc(CCNC(=O)C(CCCCCCCCC)P(=O)(O)O)cc5)cc4)=NP(Oc4ccc(/C=N/N(C)P(=S)(Oc5ccc(CCNC(=O)C(CCCCCCCCC)P(=O)(O)O)cc5)Oc5ccc(CCNC(=O)C(CCCCCCCCC)P(=O)(O)O)cc5)cc4)(Oc4ccc(/C=N/N(C)P(=S)(Oc5ccc(CCNC(=O)C(CCCCCCCCC)P(=O)(O)O)cc5)Oc5ccc(CCNC(=O)C(CCCCCCCCC)P(=O)(O)O)cc5)cc4)=N3)cc2)cc1)P(=O)(O)O.CCCCCCCCCCCCCCCCNOC(CO)C(O)C(OC1OC(CO)C(O)C(O)C1O)C(O)CO.CCCCCCCCCCCCCCCCNOC(CO)C(O)C(OC1OC(CO)C(O)C(O)C1O)C(O)CO.CCCCCCCCCCCCCCCCNOC(CO)C(O)C(OC1OC(CO)C(O)C(O)C1O)C(O)CO.CCCCCCCCCCCCCCCCNOC(CO)C(O)C(OC1OC(CO)C(O)C(O)C1O)C(O)CO.CCCCCCCCCCCCCCCCNOC(CO)C(O)C(OC1OC(CO)C(O)C(O)C1O)C(O)CO.CCCCCCCCCCCCCCCCNOC(CO)C(O)C(OC1OC(CO)C(O)C(O)C1O)C(O)CO (configuration not stated) | 0.31 µM | 19.7 | 6.1 µM |
